Here are results for 11 compounds from ChEMBL document CHEMBL1201862, “PubChem BioAssay data set” (2004).

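Assay format: 96-well plates, 48-hour exposure. Here, GI50 denotes the concentration required for 50% inhibition of growth.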 The source made the active and inactive calls. No stated cut-off is given here; in the data, active = GI50 up to about 1.1 µM and inactive = higher.

Among the test systems are A498; ACHN; BT-549; EKVX; HCT-116; HL-60; HOP-92; IGROV-1; MDA-N; NCI-H226; OVCAR-3; OVCAR-4; OVCAR-8; SF-268; SW-620; TK-10; U-251; RXF 393; SNB-75; SR.
Holding throughout (test): NCI-60 cell line screen, 48 h

`COc1ccccc1C1=C2C(=O)N(C)C(c3ccccc3OC)=C2C(=O)N1C`: the GI50 is 63 µM (inactive) with A498; 68.5 µM (inactive) in the test on ACHN; > 100 µM (inactive) in the test on BT-549; > 100 µM (inactive) in the test on EKVX; 37.4 µM (inactive) in the test on HCT-116; > 100 µM (inactive) in the test with HL-60. The GI50 with HOP-92 is 30.3 µM (inactive); in the test with IGROV-1 it was > 100 µM (inactive); in the test with MDA-N it was > 100 µM (inactive); with NCI-H226, 84.3 µM (inactive); in the test on OVCAR-3, 33.5 µM (inactive); with OVCAR-4 it was 37.2 µM (inactive). Further, the GI50 in the test with OVCAR-8 was 39.2 µM (inactive); with SF-268, 36.1 µM (inactive); in the test with SW-620 it was > 100 µM (inactive); in the test on TK-10, 70.6 µM (inactive); in the test on U-251 it was 37.9 µM (inactive).
Consider `COc1cc([C@@H]2c3cc4c(cc3[C@@H](NCCNCCO)[C@H]3COC(=O)[C@H]23)OCO4)cc(OC)c1O`, for which the GI50 with A498 was 3.85 µM (inactive); in the test with BT-549, 2.14 µM (inactive); with HCT-116, 2 µM (inactive); in the test on IGROV-1 it was 1.3 µM (inactive); in the test with MDA-N it was 3.88 µM (inactive); in the test with NCI-H226, 1.37 µM (inactive). The GI50 with OVCAR-4 was 14.4 µM (inactive); in the test with OVCAR-8, 1.81 µM (inactive); in the test with RXF 393 it was 2.02 µM (inactive); in the test on SNB-75 it was 1.19 µM (inactive); in the test on SW-620, 2.84 µM (inactive); with TK-10, 7.38 µM (inactive). Further, in the test with U-251, the GI50 was 0.813 µM (active).
For the compound `CCCCOC(=O)C(NC(C(=O)OCCCC)c1cc(C(C)(C)C)c(O)c(C(C)(C)C)c1)c1cc(C(C)(C)C)c(O)c(C(C)(C)C)c1` (configuration not stated), the GI50 is > 100 µM (inactive) with A498; > 100 µM (inactive) with ACHN; > 100 µM (inactive) in the test with BT-549; > 100 µM (inactive) in the test on EKVX; 77.1 µM (inactive) in the test on HCT-116; > 100 µM (inactive) in the test with HL-60. Also, the GI50 in the test with HOP-92 was 75 µM (inactive); in the test with IGROV-1, > 100 µM (inactive); in the test on MDA-N, > 100 µM (inactive); in the test with NCI-H226, > 100 µM (inactive); in the test on OVCAR-3, > 100 µM (inactive); in the test on OVCAR-4, > 100 µM (inactive). Besides, the GI50 in the test with OVCAR-8 was > 100 µM (inactive); with SF-268 it was > 100 µM (inactive); with SNB-75, 8.63 µM (inactive); in the test with SW-620, > 100 µM (inactive); in the test with TK-10, > 100 µM (inactive); in the test on U-251, > 100 µM (inactive).
For `COC(=O)Nc1nc2cc(NS(=O)(=O)c3ccc(F)cc3)ccc2[nH]1`, the GI50 in the test with A498 is 11.3 µM (inactive); with ACHN, 42.2 µM (inactive); in the test with BT-549, > 100 µM (inactive); in the test with EKVX it was 31.3 µM (inactive); in the test with HCT-116, 4.54 µM (inactive); in the test with HL-60 it was 4.03 µM (inactive). Further, the GI50 is 10.5 µM (inactive) with HOP-92; 2.15 µM (inactive) in the test on IGROV-1; 2.14 µM (inactive) in the test with MDA-N; 77.8 µM (inactive) in the test on NCI-H226; 2.8 µM (inactive) with OVCAR-3; 33.9 µM (inactive) in the test with OVCAR-4. The GI50 in the test with OVCAR-8 is 35 µM (inactive); in the test on RXF 393, 18.5 µM (inactive); in the test on SF-268, 72.6 µM (inactive); in the test with SNB-75 it was 6.49 µM (inactive); in the test with SW-620, 6.27 µM (inactive); with TK-10, 14.4 µM (inactive). Also, the GI50 with U-251 is 19.1 µM (inactive).
On to `CC(=O)Nc1ccc2c(c1)/C(=C\c1ccc([N+](C)(C)C)cc1)c1ccccc1-2`, for which the GI50 with A498 is 42.1 µM (inactive); in the test on ACHN it was > 100 µM (inactive); with BT-549 it was 34.3 µM (inactive); in the test on EKVX, 26.5 µM (inactive); with HCT-116, 85.3 µM (inactive); in the test on HL-60, 24.8 µM (inactive). In addition, the GI50 is 18.1 µM (inactive) with HOP-92; 35.4 µM (inactive) in the test on IGROV-1; 32.8 µM (inactive) in the test on MDA-N; 23.1 µM (inactive) in the test on NCI-H226; 36.5 µM (inactive) with OVCAR-3; 35.3 µM (inactive) in the test with OVCAR-4. For the same compound, the GI50 is 41.7 µM (inactive) in the test with OVCAR-8; > 100 µM (inactive) in the test on RXF 393; 64.9 µM (inactive) with SF-268; 28.1 µM (inactive) in the test with SNB-75; 44.1 µM (inactive) in the test on SW-620; > 100 µM (inactive) with TK-10. In addition, the GI50 in the test on U-251 is 18.4 µM (inactive).
Consider `CN1CCN(c2ccc3nc(-c4cc(O)c5c(nc(CO)n5C)c4O)[nH]c3n2)CC1`, for which the GI50 was 36.1 µM (inactive) in the test on ACHN; > 100 µM (inactive) in the test with BT-549; 22.9 µM (inactive) in the test on EKVX; 41.9 µM (inactive) in the test with HCT-116; 16.4 µM (inactive) in the test on HL-60; > 100 µM (inactive) with HOP-92. In addition, the GI50 with IGROV-1 was 64.6 µM (inactive); in the test with MDA-N, 34.2 µM (inactive); in the test with NCI-H226, 22.7 µM (inactive); in the test on OVCAR-3 it was 26.1 µM (inactive); in the test with OVCAR-4 it was 19.5 µM (inactive); in the test on OVCAR-8 it was 28.6 µM (inactive). The GI50 is 28.7 µM (inactive) in the test on RXF 393; 48.1 µM (inactive) in the test on SF-268; 20.6 µM (inactive) with SNB-75; 39.2 µM (inactive) in the test with SW-620; 15.1 µM (inactive) with U-251.
In the case of `COc1cc2c(cc1OC)OC(c1c(OC)ccc(OC)c1O)CC2` (configuration not stated), the GI50 in the test with A498 is > 100 µM (inactive); in the test on ACHN, 68.7 µM (inactive); in the test on BT-549, > 100 µM (inactive); in the test on EKVX it was > 100 µM (inactive); with HCT-116, > 100 µM (inactive); in the test with HL-60 it was 20.4 µM (inactive). Further, the GI50 in the test on HOP-92 is > 100 µM (inactive); with IGROV-1, > 100 µM (inactive); with NCI-H226 it was > 100 µM (inactive); in the test with OVCAR-3 it was 35.1 µM (inactive); in the test on OVCAR-4, 87.3 µM (inactive); in the test with OVCAR-8 it was > 100 µM (inactive). Further, the GI50 in the test with RXF 393 was > 100 µM (inactive); in the test on SF-268, > 100 µM (inactive); in the test on SNB-75 it was > 100 µM (inactive); with SR, > 100 µM (inactive); in the test on SW-620 it was > 100 µM (inactive); with TK-10, 95.3 µM (inactive). For the same compound, in the test with U-251, the GI50 was > 100 µM (inactive).
`Cc1nc2c(cc1OCc1ccccc1)C(=O)C1=C(C2=O)C2OC(=O)CC2OC1(C)C` (configuration not stated): the GI50 in the test with A498 is 1.6 µM (inactive); in the test with ACHN, 0.619 µM (active); in the test with BT-549 it was 0.564 µM (active); in the test with EKVX it was 1.55 µM (inactive); with HCT-116 it was 0.28 µM (active); in the test on HL-60, 0.0697 µM (active). Moreover, the GI50 in the test with HOP-92 is 0.375 µM (active); with IGROV-1, 0.312 µM (active); in the test on MDA-N it was 0.404 µM (active); in the test with NCI-H226, 1.09 µM (active); in the test with OVCAR-4 it was 0.498 µM (active); with OVCAR-8, 2.72 µM (inactive). Further, the GI50 in the test on RXF 393 was 0.349 µM (active); in the test on SF-268, 0.475 µM (active); in the test with SNB-75 it was 1.66 µM (inactive); in the test on SW-620 it was 0.322 µM (active); in the test on TK-10 it was 1.43 µM (inactive); in the test on U-251, 0.859 µM (active).
On to `CCCCCCCc1ccc(-c2nnc(/N=N/c3ccc(OCCCCC)cc3)s2)s1`, for which the GI50 in the test with A498, in the test on ACHN, in the test with BT-549, in the test on EKVX, in the test on HCT-116 and with HL-60 was > 100 µM (inactive) in each case. The GI50 in the test on IGROV-1 was 79.1 µM (inactive); with MDA-N it was > 100 µM (inactive); with NCI-H226, > 100 µM (inactive); with OVCAR-3, > 100 µM (inactive); in the test on OVCAR-4, > 100 µM (inactive); in the test on RXF 393, > 100 µM (inactive). Further, the GI50 in the test with SF-268, in the test on SNB-75, with SW-620, in the test with TK-10 and with U-251 was > 100 µM (inactive) throughout.
As for `CCOP(=O)(Nc1ccccc1P(=O)(OCC)OCC)OCC`, the GI50 in the test with A498, in the test with ACHN, in the test with BT-549, with EKVX, in the test with HCT-116 and in the test with HOP-92 was > 100 µM (inactive) throughout. The GI50 in the test on IGROV-1, in the test on MDA-N, in the test with OVCAR-3, in the test with OVCAR-4, with OVCAR-8 and in the test on RXF 393 was > 100 µM (inactive) each time. The GI50 in the test on SF-268, with SNB-75, with SW-620, in the test with TK-10 and in the test with U-251 was > 100 µM (inactive) throughout.
`O=C(O)c1cc2ccccc2c(/N=N/c2ccccc2)c1O`: the GI50 in the test on A498 is 33.7 µM (inactive); in the test on ACHN, 26.2 µM (inactive); with BT-549 it was 20.8 µM (inactive); with EKVX, 23.4 µM (inactive); in the test on HCT-116, 35.4 µM (inactive); with HL-60, 10 µM (inactive). Also, the GI50 with HOP-92 is 55.3 µM (inactive); with IGROV-1, 34.1 µM (inactive); in the test with MDA-N, 19.1 µM (inactive); with OVCAR-3, 26.2 µM (inactive); with OVCAR-4, > 100 µM (inactive); in the test on OVCAR-8, 37.2 µM (inactive). For the same compound, the GI50 in the test on RXF 393 was 34.9 µM (inactive); in the test on SF-268, 30 µM (inactive); with SNB-75, 19.8 µM (inactive); with SW-620, 23.8 µM (inactive); in the test on TK-10, 29 µM (inactive); in the test on U-251 it was 12.8 µM (inactive).
